# Measured values published in patent publication US20160194336A1, “P38 MAPK INHIBITORS FOR THE TREATMENT OF INFLAMMATORY DISEASES” (ALLINKY BIOPHARMA, priority 2012, published 2016).
# What was measured:
# THP-1 cells = test: survival of monocytes with LPS; assay type: cell-based, human
# p38alpha wt = biological target: T1, p38alpha wt (Homo sapiens, UniProt Q16539); test: site-mutated p38 phosphorylation cascade assay, wild type; assay type: biochemical; details: compound 10 uM
# T1 construct: made in house; host or cells: E. coli XL10-Gold
# T1 sequence (Q16539 whole entry): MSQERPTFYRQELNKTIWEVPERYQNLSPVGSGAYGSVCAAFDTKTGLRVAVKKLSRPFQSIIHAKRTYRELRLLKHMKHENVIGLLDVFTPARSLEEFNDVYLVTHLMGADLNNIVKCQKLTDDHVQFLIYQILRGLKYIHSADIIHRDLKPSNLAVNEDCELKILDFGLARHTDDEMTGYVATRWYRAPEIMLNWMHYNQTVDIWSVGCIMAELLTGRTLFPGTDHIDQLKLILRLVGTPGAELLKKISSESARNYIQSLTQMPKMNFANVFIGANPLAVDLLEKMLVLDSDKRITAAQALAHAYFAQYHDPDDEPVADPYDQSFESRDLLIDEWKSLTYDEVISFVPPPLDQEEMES
# Protocol: (§1) After preincubation, MKK6 (ProQinase), ATF2 (ProQinase) and ATP were added to a final concentration of 10 nM, 5 μM and 10 μM respectively, then incubated 40 minutes at 30° C. and analyzed with ADP-Glo™.
# (§2) Replacement of specific residues arginine 186 and 189 of p38α (pGEX4T-1-p38α) for alanine was performed with the QuikChange Lightining Site-Directed Mutagenesis Kit (Agilent Technologies). The following oligonucleotides were used for the arginine 186 to alanine substitution: forward primer: 5′-SEQ ID NO 7-3′; reverse primer: 5′-SEQ ID NO 8-3′. Oligonucleotides used for the arginine 189 to alanine substitution were: forward primer: 5′-SEQ ID NO 9-3′; reverse primer: 5′-SEQ ID NO 10-3′. Mutations were validated by sequencing (Genomic Unit, Parque Cientifico de Madrid). E. coli XL10-Gold ultracompentent cells (Agilent Technologies) were transformed with the vector plasmids containing p38αWT and mutants. For the expression of recombinant p38α transformed cells were cultured overnight at 37° C. in 50 ml of fresh LB medium containing ampicillin (100 μg/ml). After that, culture was diluted in fresh LB to A595=0.4 and grown for approximately 1 h at 37° C. until exponential growth and then induced with Isopropyl-β-D-thiogalactopyranoside (IPTG) 1 mM for 5 h. The cells were collected by centrifugation and cell pellet were resuspended in 50 ml of cold lysis buffer: PBS pH 7.4, EDTA 10 mM, PMSF 1 mM, Benzamidine 0.2 mM, DTT 5 mM, Triton X-100 1% and Lysozyme 1 mg/ml. The soluble and insoluble fractions were separated by centrifugation (16,000 g for 20 min). The soluble fraction was incubated for 2 hours with 1 ml of pre-equilibrated Glutathione Sepharose 4B (GE Healthcare) and the resin was extensively washed in a column with 200 ml of binding buffer: PBS, PMSF 1 mM and benzamidine 0.2 mM. Proteins were eluted with 1 ml of Tris-HCl 50 mM pH 8.0 and reduced glutathione 20 mM. 20% glycerol was added to purified proteins and stored at −80° C. Protein concentration and purity was assessed by SDS-PAGE. Kinase activity was measured by ADP-glo kit using MKK6 as activator and ATF2 as substrate. Activity recorded for p38αR186A and p38αR189A were 15.5% and 4.8%, respectively (n=4) related to wild type protein.
# p38αR186A = biological target: T2, p38αR186A (Homo sapiens, UniProt Q16539, R186A); test: site-mutated p38 phosphorylation cascade assay, R186A mutant; assay type: biochemical; details: compound 10 uM
# T2 construct: made in house; host or cells: E. coli XL10-Gold
# T2 sequence (Q16539 whole entry R186A): as the sequence (Q16539 whole entry) above, with R186A counted along it
# Protocol: as §1, §2
# [1] = system: TNF-α secretion, THP-1 cells; test: Inhibition of TNF-α secretion by LPS-stimulated THP-1; assay type: cell-based; details: Homo sapiens, THP-1, 3 h, monocytes with LPS, read-out: TNF abetment
# Protocol: Inhibition of TNF-α Secretion by a Human Monocytic Cell Line, THP-1.
# THP-1 cells, growing in log phase, were collected by centrifugation and resuspended in RPMI 1640 (Sigma Aldrich), to a final cell concentration of 2×10^6 cells/ml. Cells were plated into 24-well plates (BD Biosciences). Dilutions of compounds in dimethyl sulfoxide (DMSO) were added to the culture to a final concentration M. The final DMSO concentration was 0.5%. The cells […] suspensions were preincubated with compounds for 1 h at 37° C. in a 5% C02 humidified atmosphere before the addition of LPS (Sigma Aldrich, L2654) to a final concentration of 2 μg/ml. After that, cells were incubated for 3 h followed by centrifugation to pellet cells. Cell supernatants were stored at 4° C. until Human analysis for TNF-α content. TNF-α levels were determined by ELISA (TNF Biotrak, GE Healthcare) following the manufacturer's directions. The percentage inhibition was calculated for each compound concentration tested, and the IC50 was calculated for each compound.
# p38αR189A = biological target: T3, p38αR189A (Homo sapiens, UniProt Q16539, R189A); test: site-mutated p38 phosphorylation cascade assay, R189A mutant; assay type: biochemical; details: compound 10 uM
# T3 construct: made in house; host or cells: E. coli XL10-Gold
# T3 sequence (Q16539 whole entry R189A): as the sequence (Q16539 whole entry) above, with R189A counted along it
# Protocol: as §1, §2
SMILES,inhibition at 10 µM (p38alpha wt) [%],inhibition at 10 µM (p38αR186A) [%],inhibition at 10 µM (p38αR189A) [%],Cell survival (THP-1 cells; 0.1 uM) [%],Cell survival (THP-1 cells; 1 uM) [%],Cell survival (THP-1 cells; 10 uM) [%],inhibition at 0.1 µM [1] [%],inhibition at 1 µM [1] [%],inhibition at 10 µM [1] [%]
CC(C)NC(=O)c1cccc(Nc2nc3nonc3nc2N2CCC(Cc3ccccc3)CC2)c1 [Compound 20],71,38,22,101,96,81,-9,55,36
CCOC(=O)c1ccc(Nc2nc3nonc3nc2N2CCC(C(=O)c3ccccc3)CC2)cc1 [Compound 17],56,19,13,99,98,97,21,34,69
CC(C)NC(=O)c1ccc(Nc2nc3nonc3nc2N2CCC(Cc3ccccc3)CC2)cc1 [Compound 18],62,37,33,90,83,79,1,34,56
CCOC(=O)c1ccc(Nc2nc3nonc3nc2NN=Cc2cccc3ccccc23)cc1 [Compound 12],81,39,14,,97,99,,-6,-16
CCCNC(=O)c1ccc(Nc2nc3nonc3nc2N2CCC(Cc3ccccc3)CC2)cc1 [Compound 19],71,35,32,103,97,93,-47,-21,-10
CCOC(=O)c1ccc(Nc2nc3nonc3nc2N2CCC(Oc3ccccc3OC)CC2)cc1 [Compound 16],32,15,17,88,95,93,16,26,35
CCOC(=O)c1ccc(Nc2nc3nonc3nc2N2CCN(Cc3cccc(Cl)c3)CC2)cc1 [Compound 13],34,22,14,,93,86,,13,32
CCOC(=O)c1ccc(Nc2nc3nonc3nc2N2CCN(Cc3ccccc3C)CC2)cc1 [Compound 14],31,18,17,,,81,,,17

# More lines, main results first:
inhibition at 10 µM (p38alpha wt) [%],inhibition at 10 µM (p38αR186A) [%],inhibition at 10 µM (p38αR189A) [%],SMILES,Cell survival (THP-1 cells; 0.1 uM) [%],Cell survival (THP-1 cells; 1 uM) [%],Cell survival (THP-1 cells; 10 uM) [%],inhibition at 0.1 µM [1] [%],inhibition at 1 µM [1] [%],inhibition at 10 µM [1] [%]
73,40,28,CCOC(=O)c1ccc(Nc2nc3nonc3nc2Nc2ccc(C(=O)c3ccccc3)cc2)cc1 [Compound 26],86,87,83,27,30,8
66,43,39,CCOC(=O)c1ccc(NNc2nc3nonc3nc2N2CCC(Cc3ccccc3)CC2)cc1 [Compound 24],104,98,105,-23,12,67
47,23,19,CCOC(=O)c1ccc(Nc2nc3nonc3nc2N2CCC(Oc3ccncc3)CC2)cc1 [Compound 33],100,99,97,21,46,62
88,72,47,CCOC(=O)c1ccc(Nc2nc3nonc3nc2Nc2ccc(Oc3ccncc3)cc2)cc1 [Compound 27],103,99,72,28,58,76
86,41,27,CCOC(=O)c1ccc(Nc2nc3nonc3nc2N2CCC(Sc3ccc(Cl)cc3)CC2)cc1 [Compound 28],88,87,88,17,24,36
23,21,6,O=C(O)c1ccc(Nc2nc3nonc3nc2N2CCC(Cc3ccccc3)CC2)cc1 [Compound 29],103,103,92,7,11,44
59,14,30,CCOC(=O)c1ccc(Nc2nc3nonc3nc2N2CCC(Oc3ccc(Cl)cc3)CC2)cc1 [Compound 25],88,61,42,12,61,102
31,16,6,Cc1ccc(SC2CCN(c3nc4nonc4nc3-c3cccc(C(=O)OC(C)C)c3)CC2)cc1 [Compound 22],97,94,99,-2,17,10
90,48,26,CCCNC(=O)c1ccc(Nc2nc3nonc3nc2N2CCC(Sc3ccc(C)cc3)CC2)cc1 [Compound 23],96,95,88,26,41,60
83,48,38,Cc1cc(C(=O)NCC(C)C)ccc1Nc1nc2nonc2nc1N1CCC(Cc2ccccc2)CC1 [Compound 21],98,95,94,-15,18,20
25,19,9,O=C([O][Na+])c1ccc(Nc2nc3nonc3nc2N2CCC(Cc3ccccc3)CC2)cc1 [Compound 30],99,97,93,12,16,41
